Structures are written as SMILES. pEC50, pIC50: −log10 of the molar value. Activity calls are given as the source filed them.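 Rule for the calls: active = compounds giving half or more protection of infected cells from virus-caused growth loss, again on retest; inactive = the rest.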 Where a SMILES comes first, the peptide text is derived from it. [ ]: non-standard residue; d: D form. The star is where a group is joined. Ac5c = NC1(C(=O)O)CCCC1; Boc = CC(C)(C)OC(=O)*; tBu = CC(C)(C)*

In this test the test system is CEM cells HIV-1 protection, formazan growth assay. In words: NCI AIDS Antiviral Assay. Conditions: for pIC50: measured here: growth of uninfected CEM cells. The essentials: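 Screen of anti-HIV-1 activity in human CEM cells using a formazan-based growth measurement at five drug concentrations. Hits with 50% or greater protection were repeated, and confirmation required reproducible complete protection.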

As usually defined, the pEC50 is the negative decadic logarithm of the EC50, by convention in mol/L. A word on the pIC50: it is −log10 of the IC50, conventionally taken in molar units. Lower therefore signals a large IC50. As to `CC(N)C(=O)NC(CO)C(=O)NC(Cc1ccc(O)cc1)C(=O)NC(CO)C(=O)NC(C(=O)O)C(C)O` (stereo unspecified) (H-ASYST-OH; configuration not given here), the pEC50 is less than 4.02 and the pIC50 was less than 4.02. For `CC1=CC(=C(c2ccc(N)cc2)c2ccc(N)cc2)C=CC1=N`, the outcome was inactive. `CC(=O)N=C1N(/C=C2\C(=O)Oc3ccccc3C2=O)C(=O)/C(=C/c2cccc(Cl)c2Cl)N1C`: the pEC50 was less than 3.70 and the pIC50 is 4.58. `C/C(C=C(C#N)C#N)=C\c1cccc(F)c1`: the pEC50 was less than 3.91 and the pIC50 is 4.85. For `O=C1CCC(N2C(=O)C3C4CCC(O4)C3C2=O)C(=O)N1` (stereo unspecified) the same measures were less than 3.70 and less than 3.70. As to `O=C(CC(O)CCc1ccc(O)c(O)c1)O[C@H]1Cc2c(O)cc(O)cc2O[C@H]1c1ccc(O)c(O)c1` (stereo partly specified), the pEC50 was less than 3.70 and the pIC50 was 4.85. `CC(OC(C)(C)C)C1NC(=O)C(CCCCNC(=O)OC(C)(C)C)NC(=O)C(Cc2c[nH]c3ccccc23)NC(=O)C(Cc2ccccc2)NC(=O)C2(CCCC2)NC(=O)C(Cc2ccccc2)NC1=O` (stereo unspecified) (cyclo([Ac5c]FWK(Boc)T(tBu)F); configuration not given here): the pEC50 is less than 4.00 and the pIC50 was 4.73.

For the compound `CC(=O)c1ccc2c(c1)N(CCCN(C)C)c1ccccc1S2`, the pEC50 was less than 3.70 and the pIC50 was 4.46. Regarding `CCC[CH2][Sn]([CH2]CCC)([S]CCS(=O)(=O)O)[S]CCS(=O)(=O)O` (tested in a mixture with another compound), the pEC50 is less than 3.70 and the pIC50 was less than 3.70. As to `COc1cc2ccc3c4c(OC)cc(OC)c(OC)c4c(=O)n(C)c3c2cc1OC`, the pEC50 was less than 4.34 and the pIC50 is 5.44. On to `CC1CC(C(=O)CC2CC(=O)NC(=O)C2)C(=O)[C@@H](C)C1` (stereo partly specified), for which the result was inactive. Take `CC(C)C(=O)OCC1CCCN2CCCCC12` (stereo unspecified): the pEC50 is less than 3.70 and the pIC50 is less than 4.00. On to `CCC(C)C(=O)O[C@H]1C(=O)O[C@@H]2C[C@H]3C(C)=CC(=O)[C@@H](O)[C@]3(C)[C@H]3[C@@H](O)[C@H](O)[C@@]4(C)OC[C@]32[C@@H]14` (stereo partly specified), for which the pEC50 is less than 5.28 and the negative-log IC50 (pIC50) is 8.05. `CSC(SC)=C(C#N)C(=O)Nc1ccc(Cl)cc1`: the pEC50 is less than 4.83 and the negative logarithm of the IC50 (pIC50) was 5.27. For `Cc1cc(OC(=O)NCn2cc(-c3ccccc3)nn2)ccc1Cl`, the pEC50 was less than 3.70 and the pIC50 was 4.02.

For the compound `O=c1n(-c2ccccc2)c(=O)n2n1C1C=CC2C23C=CC12CCCC3` (stereo unspecified), the pEC50 was less than 4.00 and the pIC50 is 4.11. With `Clc1ccc(Nc2nnc(CNc3ccc(-c4nnc(Nc5ccc(Cl)cc5)s4)cc3)s2)cc1`, the pEC50 was less than 3.70 and the pIC50 is 4.88. With `COc1cc2nn(-c3ccccc3)nc2c2nonc12`, the pEC50 is less than 3.70 and the pIC50 is less than 3.70.

Consider `N=C(N)SCc1cn2ccccc2n1`, for which the pEC50 was less than 3.05 and the pIC50 was 4.30.

`Nc1nc(Cl)cc(NCC2(CO)CC(c3ccccc3)C2)n1` (stereo unspecified): the pEC50 is less than 4.70 and the negative-log IC50 (pIC50) was 5.80.

For the compound `N=C1SC2CCCCCCC2S1` (stereo unspecified), the pEC50 was less than 3.70 and the pIC50 was less than 3.70. For `CC(C)=CC(=O)N1CC(C)Cn2c(=S)[nH]c3cccc1c32` (stereo unspecified), the pEC50 is less than 3.70 and the pIC50 is less than 3.70. Turning to `COC(=O)C1=NC(=S)N=C(C(=O)OC)C12Cc1ccccc1C2=O`, the pEC50 is less than 3.14 and the pIC50 was 3.67.

Take `CCN1C[C@]2(CO)CCC(O)C34[C@@H]5C[C@@H]6C(OC(C)=O)[C@@H]5[C@](OC(C)=O)(C[C@@H]6OC)[C@@H](C(OC)[C@@H]32)[C@H]14` (stereo partly specified): the outcome was inactive.

For `Cc1ccc(C)c(NC(=O)C(=O)C(c2cnc3ccc([N+](=O)[O-])cc3n2)[N+](=O)[O-])c1` (stereo unspecified), the pEC50 is less than 3.91 and the pIC50 was less than 3.91. Regarding `OCCN(/N=C\c1ccc2ccccc2c1)C1=NCCN1`, the pEC50 is less than 3.70 and the pIC50 is 4.50. Consider `COc1cc2c(c(O)c1OC)C(=O)[C@@H]1CCC(=O)N1C2`, for which the pEC50 was less than 3.91 and the pIC50 was 3.95.

In the case of `CC(=O)O[C@@H]1C(C2CCCCC2)C=[N+]([O-])O[C@@H]1OC1CCCC1(c1ccccc1)c1ccccc1` (stereo partly specified), the pEC50 was less than 3.70 and the pIC50 was 5.77. On the same counts, the results for `C(=N\Nc1nnc2c(n1)[nH]c1ccccc12)/c1cccnc1` are less than 3.70 and less than 3.70.

Regarding `C=C(c1ccc(OC)c(OC)c1)c1nccc2cc(OC)c(OC)cc12`, the pEC50 was less than 4.13 and the pIC50 is 4.90. For `c1ccc2c(c1)CC1c3[nH]c4ccccc4c3CCN21` (stereo unspecified), the pEC50 is less than 3.70 and the pIC50 is 4.26. For `O=[N+]([O-])c1ccc(C2Nc3cc(Cl)c(Cl)cc3S(=O)(=O)N2O)cc1` (stereo unspecified) the same measures were less than 4.03 and 4.19. In the case of `COC1/C=C/OC2(C)Oc3c(C)c(O)c4c(O)c(c(/C=N/N5C(C)CN(Cc6cccc(O)c6)CC5C)c(O)c4c3C2=O)NC(=O)/C(C)=C\C=C\C(C)C(O)C(C)C(O)C(C)C(OC(C)=O)C1C` (stereo unspecified), the pEC50 is less than 3.70 and the pIC50 was 5.19. Regarding `CN(C)CCCN1c2ccccc2Sc2ccc(Cl)cc21`, the pEC50 is less than 3.70 and the pIC50 was 4.99. On the same counts, the results for `CO/N=C1\CC(NC(=O)CNC(=O)OC(C)(C)C)c2ccsc21` (stereo unspecified) are less than 3.70 and less than 3.70. `Nc1ccc2[nH]c(C(=O)N3CC(CCl)c4c3cc(N)c3ccccc43)cc2c1` (stereo unspecified): the pEC50 was less than 6.70 and the pIC50 is 8.38.

For the compound `COc1ccc(/C=C(\C#N)c2ccc(OC)cc2)cc1`, the pEC50 is less than 3.70 and the pIC50 was 5.09. Regarding `CCCCCCCNC(=S)N/N=C/c1ccccc1O`, the pEC50 is less than 3.70 and the pIC50 is 4.98.

As for `Cc1cccc(C(C)(C)C)c1NC(=O)CCc1n[nH]c(=S)o1`, the pEC50 was less than 3.11 and the pIC50 was 3.16. With `O=C(CCc1nnc2s/c(=C\c3ccc(Cl)cc3Cl)c(=O)n12)Nc1cc(Cl)c(Cl)cc1Cl`, the pEC50 was less than 4.88 and the negative logarithm of the IC50 (pIC50) is less than 4.88. Regarding `COc1ccc(C2c3cn[nH]c3CC3CCCCC32)cc1` (stereo unspecified), the pEC50 was less than 3.70 and the pIC50 was 4.46. For `CCOc1ccc2nc(NC(=O)C3C4CCC(O4)C3C(=O)O)sc2c1` (stereo unspecified) the same measures were less than 3.70 and 3.87. For the compound `C1SSCC2=C1CSSC2`, the pEC50 is less than 4.88 and the pIC50 was less than 4.88.

As to `Cc1cc(=O)n(-c2ccccc2)c(=S)n1-c1nc2ccccc2[nH]1`, the pEC50 is less than 3.97 and the pIC50 was 4.20.

Turning to `[C-]#[O+].[C-]#[O+].[C-]#[O+].[C-]#[O+].[C-]#[O+].[Mo+2].[Mo+4].[c-]1[c-][c-][cH-][c-]1.[c-]1[c-][c-][cH-][c-]1.c1ccc([PH+](CC[PH+](c2ccccc2)c2ccccc2)c2ccccc2)cc1`, the pEC50 was less than 5.36 and the pIC50 is 5.57. In the case of `CNc1ccc([N+](=O)[O-])cc1C(=O)N1CCC[C@H]1CO`, the pEC50 is less than 3.70 and the negative logarithm of the IC50 (pIC50) is less than 3.70. Consider `O=P1(N(CCCl)CCCl)NCCCO1` (stereo unspecified), for which the pEC50 is less than 3.02 and the pIC50 is 3.52.

These data come from PubChem BioAssay AID179 (DTP/NCI, 2004).
